Counter-ions that a name gives are not always drawn.
These compounds were tested against T1, human α2C receptor (Homo sapiens, UniProt P18825) (assay: Antagonism against the adrenoreceptor α2C (luminescence, recombinant CHO cell line)). Settings: antagonism against adrenoreceptor α2C; noradrenaline 20 nM; tested up to 10 μM; read-out: IC50.
T1 construct: expressed in transfected cells; host or cells: CHO cells, also recombinantly expressing chimeric G protein Gαqi3 and mitochondrial obelin (mtOb)
T1 sequence (P18825 1-462): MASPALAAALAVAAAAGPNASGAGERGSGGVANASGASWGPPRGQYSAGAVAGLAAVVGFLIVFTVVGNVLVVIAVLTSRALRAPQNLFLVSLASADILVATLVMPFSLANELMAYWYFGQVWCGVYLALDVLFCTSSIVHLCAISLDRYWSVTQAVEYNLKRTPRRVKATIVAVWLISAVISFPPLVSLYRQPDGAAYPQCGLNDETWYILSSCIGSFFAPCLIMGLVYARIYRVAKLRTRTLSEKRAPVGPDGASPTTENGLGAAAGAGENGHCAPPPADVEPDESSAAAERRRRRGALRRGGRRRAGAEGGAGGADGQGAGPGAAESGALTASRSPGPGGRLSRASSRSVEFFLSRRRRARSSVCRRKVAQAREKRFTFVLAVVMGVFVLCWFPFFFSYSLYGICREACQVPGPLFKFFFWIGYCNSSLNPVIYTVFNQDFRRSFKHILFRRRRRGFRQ
Assay type: cell-based
Description: Antagonism against the adrenoreceptor α1A was tested using a recombinant human α1A receptor CHO cell line which additionally also recombinantly expresses mtAeq (mitochondrial aequorin). Antagonism against the adrenoreceptor α2A was tested using a recombinant human α2A-Gα16 receptor fusion protein CHO cell line (PerkinElmer Life Sciences) which additionally also recombinantly expresses mtAeq. Antagonism against the adrenoreceptor α2B was tested using a recombinant human α2B receptor CHO cell line (PerkinElmer Life Sciences) which additionally also recombinantly expresses mtAeq. Antagonism against the adrenoreceptor α2C was tested using a recombinant human α2C receptor CHO cell line which additionally also recombinantly expresses a chimaric G protein (Gαqi3) and mtOb (mitochondrial obelin).
The cells were cultivated at 37° C. and 5% CO2 in Dulbecco's modified Eagle's Medium/NUT mix F12 with L-glutamine which additionally contains 10% (v/v) inactivated foetal calf serum, 1 mM sodium pyruvate, 0.9 mM sodium bicarbonate, 50 U/ml penicillin, 50 μg/ml streptomycin, 2.5 μg/ml amphotericin B and 1 mg/ml Geneticin. The cells were passaged with enzyme-free Hank's-based cell dissociation buffer. All cell culture reagents used are from Invitrogen (Carlsbad, USA).
Luminescence measurements were carried out on white 384-well microtitre plates. 2000 cells/well were plated in a volume of 25 μl and cultivated for one day at 30° C. and 5% CO2 in cell culture medium with coelenterazine (α2A and α2B: 5 μg/ml; α1a/c and α2C: 2.5 μg/ml). Serial dilutions of the test substances (10 μl) were added to the cells. After 5 minutes, noradrenalinee was added to the cells (35 μl; final concentrations: 20 nM (α1a/c and α2C) or 200 nM (α2A and α2B)), and the emitted light was measured for 50 seconds using a CCD (charge-coupled device) camera (Hamamatsu Corporation, Shizuoka, Japan) in a light-tight box. The test substances were tested up to a maximum concentration of 10 μM. The IC50 values were calculated from the appropriate dose-response curves.

Q: For `CC(C)(O)c1ccc(C(=O)N2CCC(N3CCCC(COC4CCC4)C3)CC2)cc1` (racemic) [Example 116, {3-[(Cyclobutyloxy)methyl]-1,4′-bipiperidin-1′-yl}[4-(2-hydroxypropan-2-yl)phenyl]methanone (racemate)], which IC50 is on record?
A: 0.007 µM

Q: `C[C@@H]1CN(C2CCN(C(=O)c3ccc(C(C)(C)C)cc3)CC2)CC[C@@H]1C` (relative stereo) [Example 20, cis-1-[1-(4-tert-Butylbenzoyl)piperidin-4-yl]-3,4-dimethylpiperidine trifluoroacetic acid salt] was tested. Which IC50 did it give?
A: 0.117 µM

Q: With `CC1CCCN(C2CCN(C(=O)c3ccc(C(C)(C)C)cc3)CC2)C1` (single isomer, unassigned) [Example 6, (4-tert-Butylphenyl)(3-methyl-1,4′-bipiperidin-1′-yl)methanone, (−)-enantiomer] as the compound, how does the IC50 read?
A: 0.091 µM

Q: Which IC50 does the source give for `CCC1CCCN(C2CCN(C(=O)c3ccc(C(C)(C)O)cc3)CC2)C1` (single isomer, unassigned; enantiomer 1) [Example 115, [3-Ethyl-1,4′-bipiperidin-1′-yl][4-(2-hydroxypropan-2-yl)phenyl]methanone (enantiomer 1)] here?
A: 0.022 µM

Q: Which IC50 does the source give for `CC(C)(O)c1ccc(C(=O)N2CCC(N3CCCC(OCC4CC4)C3)CC2)cc1` (single isomer, unassigned; enantiomer 1) [Example 129, [3-(Cyclopropylmethoxy)-1,4′-bipiperidin-1′-yl][4-(2-hydroxypropan-2-yl)phenyl]methanone hydrochloride (enantiomer 1)] here?
A: 0.016 µM

Q: Which IC50 does the source give for `CC(C)(O)c1ccc(C(=O)N2CCC(N3CCCC(COC4CCC4)C3)CC2)cc1` (single isomer, unassigned; enantiomer 2) [Example 117, {3-[(Cyclobutyloxy)methyl]-1,4′-bipiperidin-1′-yl}[4-(2-hydroxypropan-2-yl)phenyl]methanone (enantiomer 2)] here?
A: 0.005 µM

Q: With `CCOC[C@@H]1CCCN(C2CCN(C(=O)c3ccc(C(C)(C)O)cc3)CC2)C1` (single isomer, unassigned; enantiomer 2) [Example 121, [3-(Ethoxymethyl)-1,4′-bipiperidin-1′-yl][4-(2-hydroxypropan-2-yl)phenyl]methanone (enantiomer 2)] as the compound, how does the IC50 read?
A: 0.005 µM

Q: With `COCC1CCCN(C2CCN(C(=O)c3ccc(C(C)(C)O)cc3)CC2)C1` (single isomer, unassigned; enantiomer 2) [Example 123] as the compound, how does the IC50 read?
A: 0.007 µM

Q: With `CCOC(=O)C1CCCN(C2CCN(C(=O)c3ccc(C(C)(C)C)cc3)CC2)C1` (centres unmarked) [Example 1, Ethyl 1′-[(4-tert-butylphenyl)carbonyl]-1,4′-bipiperidine-3-carboxylate] as the compound, how does the IC50 read?
A: 0.038 µM

Q: Which IC50 does the source give for `CCOC(=O)c1ccc(C(=O)N2CCC(N3CCCC(C(=O)OCC)C3)CC2)cc1` (centres unmarked) [Example 2, 3-(Ethoxycarbonyl)-1-{1-[4-(ethoxycarbonyl)benzoyl]piperidin-4-yl}piperidine trifluoroacetic acid salt] here?
A: 0.12 µM

Q: How did the IC50 turn out when `CC1CCCN(C2CCN(C(=O)c3ccc(C(C)(C)C)c(Cl)c3)CC2)C1` (centres unmarked) [Example 3, (3-Chloro-4-tert-butylphenyl)(3-methyl-1,4′-bipiperidin-1′-yl)methanone trifluoroacetic acid salt] was run?
A: 0.268 µM

Q: With `CC1CCCN(C2CCN(C(=O)c3ccc(C(C)C)cc3)CC2)C1` (centres unmarked) [Example 4, (4-Isopropylphenyl)(3-methyl-1,4′-bipiperidin-1′-yl)methanone] as the compound, how does the IC50 read?
A: 0.294 µM

Q: `CC1CCCN(C2CCN(C(=O)c3ccc(C(C)(C)C)cc3)CC2)C1` (centres unmarked) [Example 5, (4-tert-Butylphenyl)(3-methyl-1,4′-bipiperidin-1′-yl)methanone] was tested. Which IC50 did it give?
A: 0.099 µM

Q: With `CC1CCCN(C2CCN(C(=O)c3ccc(C(C)(C)O)cc3)CC2)C1` (centres unmarked) [Example 7] as the compound, how does the IC50 read?
A: 0.538 µM

Q: `CCOC(=O)C1CCCN(C2CCN(C(=O)c3ccc(C(C)(C)O)cc3)CC2)C1` (centres unmarked) [Example 9, Ethyl 1′-[4-(2-hydroxypropan-2-yl)benzoyl]-1,4′-bipiperidine-3-carboxylate] was tested. Which IC50 did it give?
A: 0.044 µM

Q: `COc1ccccc1OCc1ccc(C(=O)N2CCC(N3CCCC(C)C3)CC2)cc1` (centres unmarked) [Example 10, {4-[(2-Methoxyphenoxy)methyl]phenyl}[3-methyl-1,4′-bipiperidin-1′-yl]methanone] was tested. Which IC50 did it give?
A: 0.096 µM

Q: With `Cc1cc(C)n(Cc2ccc(C(=O)N3CCC(N4CCCC(C)C4)CC3)cc2)n1` (centres unmarked) [Example 11, {4-[(3,5-Dimethyl-1H-pyrazol-1-yl)methyl]phenyl}(3-methyl-1,4′-bipiperidin-1′-yl)methanone] as the compound, how does the IC50 read?
A: 0.167 µM

Q: Which IC50 does the source give for `CC1CCCN(C2CCN(C(=O)c3ccc(C(C)(C)C)cc3O)CC2)C1` (centres unmarked) [Example 12, (2-Hydroxy-4-tert-butylphenyl)(3-methyl-1,4′-bipiperidin-1′-yl)methanone] here?
A: 0.087 µM

Q: `CCOCc1ccc(C(=O)N2CCC(N3CCCC(C)C3)CC2)cc1` (centres unmarked) [Example 13, [4-(Ethoxymethyl)phenyl](3-methyl-1,4′-bipiperidin-1′-yl)methanone] was tested. Which IC50 did it give?
A: 0.267 µM

Q: How did the IC50 turn out when `CC1CCCN(C2CCN(C(=O)c3ccc(COc4ccccc4)cc3)CC2)C1` (centres unmarked) [Example 14, [4-(Phenoxymethyl)phenyl](3-methyl-1,4′-bipiperidin-1′-yl)methanone] was run?
A: 0.115 µM

Q: For `COc1cc(C(C)(C)C)ccc1C(=O)N1CCC(N2CCCC(C)C2)CC1` (centres unmarked) [Example 15, (4-tert-Butyl-2-methoxyphenyl)(3-methyl-1,4′-bipiperidin-1′-yl)methanone], which IC50 is on record?
A: 0.098 µM

Q: For `CC(C)(C)c1ccc(C(=O)N2CCC(N3CCCC(OC(=O)NC4CC4)C3)CC2)cc1` (centres unmarked) [Example 16, 1′-(4-tert-Butylbenzoyl)-1,4′-bipiperidin-3-yl cyclopropylcarbamate], which IC50 is on record?
A: 0.38 µM

Q: `CC1=C(C)CN(C2CCN(C(=O)c3ccc(C(C)(C)C)cc3)CC2)CC1` [Example 17, 1-[1-(4-tert-Butylbenzoyl)piperidin-4-yl]-4,5-dimethyl-1,2,3,6-tetrahydropyridine] was tested. Which IC50 did it give?
A: 0.034 µM

Q: For `Cc1nnc(C2CCCN(C3CCN(C(=O)c4ccc(C(C)(C)C)cc4)CC3)C2)o1` (centres unmarked) [Example 18, (4-tert-Butylphenyl) [3-(5-methyl-1,3,4-oxadiazol-2-yl)-1,4′-bipiperidin-1′-yl]methanone], which IC50 is on record?
A: 0.129 µM

Q: How did the IC50 turn out when `COCC1CCCN(C2CCN(C(=O)c3ccc(C(C)(C)C)cc3)CC2)C1` (centres unmarked) [Example 19, (4-tert-Butylphenyl)[3-(methoxymethyl)-1,4′-bipiperidin-1′-yl]methanone] was run?
A: 0.008 µM

Q: How did the IC50 turn out when `Cc1n[nH]c(C2CCCN(C3CCN(C(=O)c4ccc(C(C)(C)C)cc4)CC3)C2)n1` (centres unmarked) [Example 21, 1-[1-(4-tert-Butylbenzoyl)piperidin-4-yl]-3-(3-methyl-1H-1,2,4-triazol-5-yl)piperidine trifluoroacetic acid salt] was run?
A: 0.049 µM

Q: `COC(=O)c1ccc(C(=O)N2CCC(N3CCCC(C)C3)CC2)cc1` (centres unmarked) [Example 22, Methyl 4-[(3-methyl-1,4′-bipiperidin-1′-yl)carbonyl]benzoate] was tested. Which IC50 did it give?
A: 0.94 µM

Q: For `CC1CCCN(C2CCN(C(=O)c3ccc(CC4(C)COC4)cc3)CC2)C1` (centres unmarked) [Example 23, (3-Methyl-1,4′-bipiperidin-1′-yl){4-[(3-methyloxetan-3-yl)methyl]phenyl}methanone], which IC50 is on record?
A: 0.136 µM

Q: With `CCOC(=O)C1CCCN(C2CCN(C(=O)c3ccc(CC4(C)COC4)cc3)CC2)C1` (centres unmarked) [Example 24, Ethyl 1′-{4-[(3-methyloxetan-3-yl)methyl]benzoyl}-1,4′-bipiperidine-3-carboxylate] as the compound, how does the IC50 read?
A: 0.017 µM

Q: For `CC1CCCN(C2CCN(C(=O)c3ccc(C4(C)COC4)cc3)CC2)C1` (centres unmarked) [Example 25, (3-Methyl-1,4′-bipiperidin-1′-yl) [4-(3-methyloxetan-3-yl)phenyl]methanone], which IC50 is on record?
A: 0.101 µM

Q: With `CCOC(=O)C1CCCN(C2CCN(C(=O)c3ccc(C4(C)COC4)cc3)CC2)C1` (centres unmarked) [Example 26, Ethyl 1′-[4-(3-methyloxetan-3-yl)benzoyl]-1,4′-bipiperidine-3-carboxylate] as the compound, how does the IC50 read?
A: 0.012 µM

Q: How did the IC50 turn out when `CCOC(=O)C(C)(C)c1ccc(C(=O)N2CCC(N3CCCC(C)C3)CC2)cc1` (centres unmarked) [Example 27, 1-{1-[4-(1-Ethoxy-2-methyl-1-oxopropan-2-yl)benzoyl]piperidin-4-yl}-3-methylpiperidine trifluoroacetic acid salt] was run?
A: 0.162 µM

— patent publication US20160318866A1, “SUBSTITUTED BIPIPERIDINYL DERIVATIVES” (Bayer Pharma Aktiengesellschaft, priority 2013, published 2016)
